Ends that are not written are not given here.
Assays:
[1] = Reversed-phase HPLC retention time as measure of peptide hydrophobicity; type: physicochemical; conditions: retention time by reverse-phase HPLC, reflects hydrophobicity difference between analogues
Description: The physicochemical parameters crucial for the antimicrobial activity of AMPs have been identified, encompassing net charge, helicity, hydrophobicity, and amphipathicity. The hydropathicity, mean relative hydrophobic moment, and charge of peptides were predicted using the HeliQuest (https://heliquest.ipmc.cnrs.fr/ (accessed on 12 March 2024)). Lysine is a hydrophilic amino acid, and its substitution leads to a decrease in the hydrophobicity of the SAAP-148 analogue. The anticipated results are consistent, with the degree of reduction in […] varying depending on the position at which lysine is substituted (Table 2). The amphipathicity of the peptides, as denoted by the μH (mean relative hydrophobic moment), is elaborated on in Table 2. The hydrophobic moment of SAAP-148 analogues was decreased except for SAAP-10, which is on account of the substitution occurring on the18th residue. (Figure 1) The 18th residue of SAAP-148 is glutamine, a polar amino acid residue, located at the junction of the hydrophobic and hydrophilic surfaces of the SAAP-148 α-helix. […] The retention time data determined by reversed-phase high-performance liquid chromatography (RP-HPLC) reflects the hydrophobicity difference between peptide analogues. It is well documented that the formation of a hydrophobic-binding domain due to peptide secondary structure can affect peptide interactions with reversed-phase matrices. This effect was observed particularly for amphipathic α-helical peptides. Given this preferred binding domain, amphipathic α-helical peptides are considerably more retentive than non-amphipathic peptides with the same amino acid composition.
This phenomenon was particularly evident in the case of amphipathic α-helical peptides. […] This discrepancy may be attributed to the lack of a well-defined α-helical structure in SAAP-148 and its analogues (Figure S1).

[2] = test system: Escherichia coli (1.8732); type: cell-based
Description: (§1) The LL-37, SAAP-148 and its analogues peptides were synthesized according to the standard Fmoc procedure. The Fmoc-protected resin and monomers are first treated with a basic solvent (piperidine) to remove the amino protecting groups. The carboxyl group of the next amino acid is activated by an activator. The activated monomer reacts with the free amino group to form a peptide bond. These two steps are repeated in a cycle until the synthesis is complete. After synthesis, the peptide is eluted from the column and purified by reverse-phase semipreparative high-performance liquid chromatography as detailed in Table 1. The peptides were dissolved in PBS to create a 1000 μmol/L stock solution for subsequent use. The purity of the synthetic peptide exceeded 95%. Blood samples from healthy donors were obtained from the Fifth Medical Center of Chinese PLA General Hospital (Beijing, China). Human normal lung epithelial cells (BEAS-2B) and mouse mononuclear macrophages cells (RAW 264.7) were sourced from Beyotime Biotechnology (Beijing, China), along with the Enhanced Cell Counting Kit-8 (CCK-8) and nitric oxide detection kit. RPMI-1640 and DMEM were procured from Merck (Darmstadt, Germany), while FBS was obtained from ExCell Bio (Shanghai, China). LPS-B5 (from E. coli 055:B5) was procured from Invivogen (Toulouse, France). Five bacterial strains, including Escherichia coli (1.8732), Pseudomonas aeruginosa (1.2421), Klebsiella pneumonia (1.1736) as Gram-negative bacteria, and Staphylococcus aureus (1.8721) and Staphylococcus epidermidis (1.4260) as Gram-positive bacteria, were procured from the China General Microbiological Culture Collection Centre (CGMCC) (Beijing, China).
(§2) The antibacterial activities of the peptides against […] were evaluated using a modified version of the Clinical Laboratory and Standards Institute (CLSI) broth microdilution method, as previously described. Briefly, the bacteria were cultured in liquid LB medium (comprising 10 g/L tryptone, 5 g/L yeast extract, and 10 g/L NaCl) at 37 °C until reaching mid-log phase. Subsequently, the bacterial concentration was adjusted to 1 × 10^6 colony-forming units (CFU)/mL. The peptides were then diluted serially with phosphate-buffered saline (PBS), followed by the addition of 50 μL of the diluted peptides to 50 μL of the bacterial suspension in a 96-well plate (Corning Inc., Lowell, MA, USA). After incubating at 37 °C for 18 to 20 h, the absorbance of each well was measured using a multi-well microplate reader (SpectraMax M5; Molecular Devices, Sunnyvale, CA, USA) at 600 nm.

[3] = test system: Pseudomonas aeruginosa (1.2421); type: cell-based
Description: as §1, §2

[4] = test system: Staphylococcus aureus (1.8721); type: cell-based
Description: as §1, §2

[5] = test system: Staphylococcus epidermidis (1.4260); type: cell-based
Description: as §1, §2

[6] = test system: Klebsiella pneumonia (1.1736); type: cell-based, Klebsiella pneumoniae
Description: as §1, §2

[7] = test system: Gram-negative bacteria (E. coli, P. aeruginosa, K. pneumoniae); test: Geometric mean of MICs against Gram-negative bacteria; type: cell-based; parameters: unit not given here
Procedure: as §2

[8] = test system: Gram-positive bacteria (S. aureus, S. epidermidis); test: Geometric mean of MICs against Gram-positive bacteria; type: cell-based; parameters: unit not given here
Procedure: as §2

[9] = test system: five bacterial strains; test: MICs against all five bacterial strains (geometric mean, range); type: cell-based; parameters: unit not given here; conditions: geometric mean of MICs against all five bacterial strains
Procedure: as §2

[10] = test system: human erythrocytes versus five bacterial strains; test: Therapeutic index (MHC/GM of MIC); conditions: ratio of MHC to geometric mean of MIC (five strains)
Procedure: The geometric mean of minimum inhibitory concentration (MIC) values (GM) from the five strains was calculated to provide a comprehensive assessment of antimicrobial activity, as presented in Table 4.
The therapeutic index (TI) is a widely utilized parameter for indicating the specificity of antimicrobial agents, which is determined by the ratio of MHC (hemolytic activity) and MIC (antimicrobial activity). Consequently, larger TI values signify greater antimicrobial specificity. The TI can be enhanced through one of three mechanisms: increasing antimicrobial activity, reducing hemolytic activity while maintaining antimicrobial activity, or a combination of both augmenting antimicrobial activity and diminishing hemolytic activity.

[11] = test system: LPS-induced NO in RAW264.7 macrophages; test: Inhibition of LPS-induced NO production, Griess assay; type: cell-based, mouse; conditions: 6.25 μM peptide, LPS 100 ng/mL, 24 h, Griess assay (Figure 4)
Description: LL-37 is a promising peptide for the regulation of inflammation and mitigation of endotoxin impact due to its ability to directly bind to LPS and counteract its biological effects, such as the inhibition of interleukin-6 (IL-6), interleukin 1β (IL-1β), and LPS-induced nitric oxide (NO). We conducted a series of experiments to assess the effectiveness of SAAP-148 and its analogues in reducing NO production by mouse mononuclear pacrophages cells (RAW264.7) after LPS stimulation. […] Subsequently, we employed a Griess assay to evaluate the levels of nitrite in RAW264.7 cells following treatment with SAAP-148 and its analogues, both with and without LPS treatment.
RAW264.7 cells were cultured in DMEM supplemented with 10% (v/v) FBS, 2 mM L-glutamine, 100 U/mL penicillin, and […] streptomycin, and maintained in a humidified incubator with 5% CO2 at 37 °C. Subsequently, RAW264.7 cells (1.5 × 10^4 cells/well) were seeded in 96-well plates (Corning Inc., Lowell, MA, USA) and incubated overnight. […] After incubation for 24 h, the culture supernatant was collected, and NO assay was performed according the instruction. The absorbance of the sample was measured at 550 nm.

[12] = CD spectra, secondary structure by BeStSel; type: physicochemical; conditions: 30 μM SDS as printed, 100 μM peptide, 25 °C
Procedure: CD spectra (Figure S1) were acquired using a JASCO J-1500 spectropolarimeter (JASCO Inc., Easton, MD, USA) in 0.1 cm pathlength cells under nitrogen at 25 °C. The spectra were recorded in the range of 190 to 250 nm at a peptide concentration of 100 μM in SDS. Secondary structure was determined using the BeStSel server. Hydropathicity, mean relative hydrophobic moment, and charge of peptides were predicted using the HeliQuest (https://heliquest.ipmc.cnrs.fr/ (accessed on 12 March 2024)). The 3D structure of SAAP-148 and its analogues (Figure S2) was predicted using PEP-FOLD4 servers (https://bioserv.rpbs.univ-paris-diderot.fr/services/PEP-FOLD4/ (accessed on 19 June 2024)).

[13] = test system: BEAS-2B cells; test: Membrane damage, PI staining and flow cytometry; type: cell-based; conditions: 6.25 μM peptide, 1 × 10^6 cells, 37 °C, 30 min, flow cytometry
Procedure: (§3) Propidium iodide (PI) was utilized as a marker for assessing the structural integrity of cell membranes and the occurrence of cell death. The impact of peptides on BEAS-2B cells, E. coli, and S. aureus was investigated by treating the cells with peptides followed by PI staining and flow cytometry (FACS) analysis to evaluate peptide-induced membrane damage. Table 5 presents the results of PI staining in BEAS-2B cells (1 × 10^6) following treatment with peptides at a concentration of 6.25 μM. […] FACS analysis at a peptide concentration of 6.25 μM was employed to determine the membrane damage caused by peptides in E. coli and S. aureus cells (Table 5).
(§4) Peptide-induced membrane damage was evaluated by quantifying the influx of propidium iodide (PI). BEAS-2B cells (1 × 10^6 cells in 50 μL) were exposed to a final concentration of 6.25 μM peptide and incubated at 37 °C for 30 min, followed by PBS washing and re-suspension in PI solution (dissolved in PBS) at a final concentration of 2 μg/mL. Bacteria were cultured to mid-log phase at 37 °C, then diluted to an OD600 of 0.5 in phosphate-buffered saline (PBS). […] The bacteria were harvested and re-suspended in PI solution, with fluorescence signal analysis conducted using flow cytometry (Cytomics FC 500, Beckman Coulter, Indianapolis, IN, USA).

[14] = test system: E. coli; test: Membrane damage, PI staining and flow cytometry; type: cell-based, Escherichia coli; conditions: 6.25 μM peptide, OD600 0.5 in PBS, 37 °C, 30 min, flow cytometry
Procedure: as §3, §4

[15] = test system: S. aureus; test: Membrane damage, PI staining and flow cytometry; type: cell-based, Staphylococcus aureus; conditions: 6.25 μM peptide, OD600 0.5 in PBS, 37 °C, 30 min, flow cytometry
Procedure: as §3, §4

| Molecule | Rt [1] [min] | MIC E. coli [2] [µM] | MIC P. aeruginosa [3] [µM] | MIC S. aureus [4] [µM] | MIC S. epidermidis [5] [µM] | MIC K. pneumoniae [6] [µM] | GM to G− [7] | GM to G+ [8] | MIC (GM) [9] | TI (MHC/MIC) [10] | NO inhibition ability [11] | Others [12] [%] | Turn [12] [%] | α-Helix [12] [%] | β-Antiparallel [12] [%] | β-Parallel [12] [%] | proportion of PI-positive cells, BEAS-2B [13] [%] | proportion of PI-positive cells, E. coli [14] [%] | proportion of PI-positive cells, S. aureus [15] [%] |
| --- | --- | --- | --- | --- | --- | --- | --- | --- | --- | --- | --- | --- | --- | --- | --- | --- | --- | --- | --- |
| LKRVWKRVFKLLKRYWRQLKKPVR-NH2 [SAAP-148] | 12.416 | 6.25 | 3.13 | 50.00 | 3.13 | 6.25 | 4.96 | 12.51 | 7.18 | 0.11 | comparable efficacy to LL-37 | 0 | 0 | 93.5 | 6.5 | 0 |  |  |  |
| CC[C@H](C)[C@H](NC(=O)[C@H](CCCCN)NC(=O)[C@H](CCC(=O)O)NC(=O)[C@H](CCCCN)NC(=O)[C@H](CO)NC(=O)[C@H](CCCCN)NC(=O)[C@H](CCCNC(=N)N)NC(=O)[C@H](Cc1ccccc1)NC(=O)[C@H](Cc1ccccc1)NC(=O)[C@H](CC(=O)O)NC(=O)CNC(=O)[C@H](CC(C)C)NC(=O)[C@@H](N)CC(C)C)C(=O)NCC(=O)N[C@@H](CCCCN)C(=O)N[C@@H](CCC(=O)O)C(=O)N[C@@H](Cc1ccccc1)C(=O)N[C@@H](CCCCN)C(=O)N[C@@H](CCCNC(=N)N)C(=O)N[C@H](C(=O)N[C@H](C(=O)N[C@@H](CCC(N)=O)C(=O)N[C@@H](CCCNC(=N)N)C(=O)N[C@H](C(=O)N[C@@H](CCCCN)C(=O)N[C@@H](CC(=O)O)C(=O)N[C@@H](Cc1ccccc1)C(=O)N[C@@H](CC(C)C)C(=O)N[C@@H](CCCNC(=N)N)C(=O)N[C@@H](CC(N)=O)C(=O)N[C@@H](CC(C)C)C(=O)N[C@H](C(=O)N1CCC[C@H]1C(=O)N[C@@H](CCCNC(=N)N)C(=O)N[C@H](C(=O)N[C@@H](CCC(=O)O)C(=O)N[C@@H](CO)C(=O)O)[C@@H](C)O)C(C)C)[C@@H](C)CC)C(C)C)[C@@H](C)CC [LL-37, reference compound] | 11.125 |  |  |  |  |  | 12.49 | 100 | 28.72 |  |  | 0 | 0 | 100 | 0 | 0 | 31.2 | 78.9 | 46.9 |

From publication PMC11546786, “Designing Analogs of SAAP-148 with Enhanced Antimicrobial and Anti-LPS Activities” (International Journal of Molecular Sciences, 2024)
